Measurements as given in ChEMBL document CHEMBL5724696, “Autophagy assay results for EUbOPEN Chemogenomics Library” (2024).

Assays:
U2OS [1] = test: (§1) Here: values are normalized to the positive (DMSO; basel flux = defined as 100% suppression) and negative (250nM Torin1; mTOR inhibitor; maximal inducer of autophagy defined as 0% suppression) control compounds and represented as % of ER-phagy suppression. […] The impact of autophagy induction on cells is complex and depends on the affected target. […] Of note, treatment concentrations may be sub-optimal for specific compounds, leading to false negative annotations.; type: functional, Homo sapiens; settings: Compound Concentration 1 uM, Culturing Media DMEM, 1 % Penicillin/Streptomycin, 10% Fetal bovin serum Add-On: blasticidin, Screening Media Control DMEM, 10% Fetal bovin serum Add-On: 1 µg/ml Doxycyclin, Screening Media Samples DMEM, 10% Fetal bovin serum Add-On: 1 µg/ml Doxycyclin 250nM Torin1
U2OS [2] = test: as §1; type: functional, Homo sapiens; settings: Compound Concentration 1 uM, Culturing Media DMEM, 1 % Penicillin/Streptomycin, 10% Fetal bovin serum Add-On: blasticidin, Screening Media Control DMEM, 10% Fetal bovin serum Add-On: 1 µg/ml Doxycyclin, Screening Media Samples DMEM, 10% Fetal bovin serum Add-On: 1 µg/ml Doxycyclin 250nM Torin1; remark: listed apart in the source

SMILES	ER-phagy suppression (U2OS [1]; Timepoint 12 hours)	ER-phagy suppression (U2OS [1]; Timepoint 24 hours)	ER-phagy suppression (U2OS [1]; Timepoint 36 hours)	ER-phagy suppression (U2OS [1]; Timepoint 54 hours)	ER-phagy suppression (U2OS [2]; Timepoint 12 hours)	ER-phagy suppression (U2OS [2]; Timepoint 24 hours)	ER-phagy suppression (U2OS [2]; Timepoint 36 hours)	ER-phagy suppression (U2OS [2]; Timepoint 60 hours)
O=C(O)c1ccc2c3c1cccc3c(=O)n1c3ccccc3nc21	-10.0258%	-24.8466%	-33.5835%	-29.9152%	-11.121%	-24.1866%	-20.6591%	-29.8702%
Cc1c(NC(=O)c2ccc(C(C)(C)C)cc2)cccc1-c1cn(C)c(=O)c(Nc2ccc(C(=O)N3CCOCC3)cc2)n1	-19.8949%	-28.4876%	-32.1203%	-24.8408%	-0.6222%	-11.9993%	-14.8569%	-20.2284%
Cc1ccc(-c2ccc3c(ccc4sc5c(c43)NC[C@@H](C)NC5=O)n2)cn1	-17.2516%	-0.875%	6.096%	19.149%	5.336%	5.52%	7.693%	5.525%
CCOC(=O)c1c(/C(C#N)=C\N)c2ccc(Cl)c(Cl)c2n1C	-23.9161%	-42.4331%	-44.7519%	-41.2832%	-5.524%	-4.715%	1.333%	-3.592%
CNc1nc(-c2ccc3c(N)n[nH]c3c2)cc(N2C[C@@H](C(=O)NC3CCCCC3)CC[C@H]2C)n1	-64.3148%	-57.2907%	-47.7488%	-36.1372%	0.4494%	-26.9041%	-20.7872%	-21.6855%
Cc1ccc(NC(=O)Nc2cc(C(F)(F)F)ccc2F)cc1Nc1ccc2c(c1)NC(=O)/C2=C\c1ccc[nH]1	-7.664%	-22.8744%	-24.0512%	-22.1975%	18.743%	-2.579%	-6.116%	-1.261%
CCc1cncnc1N1CCN(Cc2nc3cc(C(F)(F)F)ccc3[nH]2)CC1	-12.878%	-26.39%	-24.8445%	-23.0115%	-3.169%	-14.0511%	-20.9455%	-35.5971%
OCCn1cc(-c2ccc3c(c2)CCC3=NO)c(-c2ccncc2)n1	-23.6151%	-59.1263%	-53.5237%	-39.7477%	13.4101%	0.6971%	-0.91%	0.4621%
CN(c1ncccc1CNc1nc(Nc2ccc3c(c2)CC(=O)N3)ncc1C(F)(F)F)S(C)(=O)=O.O=S(=O)(O)c1ccccc1	6.672%	-24.1053%	-34.2095%	-20.8605%	-10.0797%	-6.87%	0.4518%	0.1589%
CCCCNc1ncc(-c2ccc(CN3CCOCC3)cn2)c(N[C@H]2CC[C@H](O)CC2)n1	-5.509%	-21.7145%	-31.345%	-19.8135%	-8.957%	-7.3145%	4.583%	12.8118%
CCn1c(=O)c(-c2ccc(Cl)cc2Cl)cc2cnc(Nc3ccc(N4CCNCC4)c(F)c3)nc21	-49.4743%	-41.9787%	-21.5083%	-6.286%	36.4408%	60.1254%	62.8115%	76.8114%
CC(C)NC(=O)N1CC[C@H](NC2=Nc3cc(F)ccc3N(CC(F)F)c3ccc(Cl)cc32)C1	-34.3378%	-42.165%	-48.481%	-44.6081%	-0.3952%	-5.126%	-3.1%	-4.344%
Cc1ccc(C(=O)Nc2cccc(C(F)(F)F)c2)cc1Nc1nc(-c2cccnc2)nc2c1cnn2C	20.046%	2.016%	-6.3%	-2.2204%	26.4951%	22.3835%	22.4378%	22.9955%
CC1=C(C(=O)Nc2cc3cn[nH]c3cc2F)C(c2ccc(C(F)(F)F)cc2)CC(=O)N1 (stereo unspecified)	-59.3717%	-37.062%	5.409%	47.7199%	-7.959%	-2.49%	15.1812%	22.9185%
CCOc1cn(-c2ccc(F)cc2C)nc1C(=O)Nc1ccc(Oc2ccnc3cc(OC)c(OC)cc23)c(F)c1	8.613%	-11.0646%	-14.9155%	-19.0742%	7.441%	-3.201%	13.658%	1.882%
Cc1c(C(=O)Nc2ccc(Oc3ccnc4[nH]cc(-c5ccccc5)c34)c(F)c2)c(=O)n(-c2ccc(F)cc2)n1C	3.929%	-12.4432%	-17.5101%	-17.0737%	11.6236%	-15.4691%	-3.07%	-1.46%
CN(C)C(=O)Cn1cc(-c2ccc(-c3cncc4ccccc34)cc2)cn1	5.324%	37.0971%	57.9552%	74.4134%	-8.903%	10.8163%	25.7126%	36.3142%
CN(C)C(=O)Cn1cc(-c2ccc(-c3nnc4ccccn34)cc2)cn1	-13.7824%	-23.4109%	-24.5481%	-15.5458%	-17.2141%	-21.3564%	-13.477%	-20.2221%
CN(C)C(=O)N1CC[C@H](NC2=Nc3cc(F)ccc3N(CC(F)F)c3ccc(Cl)cc32)C1	-18.0128%	-30.8641%	-36.8246%	-25.6155%	-14.7963%	-22.2791%	-19.1413%	-31.4062%
Cl.NC(=O)c1cnc(N[C@@H]2CCCC[C@@H]2N)nc1Nc1cccc(-n2nccn2)c1	27.5492%	18.4362%	21.4313%	34.0409%	9.977%	25.4122%	28.6706%	31.7231%
COc1cc(C2c3cc4c(cc3[C@H](O)[C@H]3COC(=O)[C@@H]23)OCO4)cc(OC)c1OC (stereo partly specified)	19.9758%	6.76%	5.125%	8.089%	13.7164%	-2.596%	7.675%	9.356%
O=C1Nc2ccc(I)cc2/C1=C/c1cc(Br)c(O)c(Br)c1	-35.4464%	-41.788%	-41.037%	-30.605%	-13.4504%	-24.7924%	-11.7006%	-13.1814%
